Earlier results, collected in patent publication US20230149445A1, “OXIDATIVE STRESS INHIBITOR AND ANTIOXIDANT AGENT” (BOSQUET Silicon Corp., priority 2020, published 2023).

Details: water at 25° C.

## [HH] [hydrogen (H2), hydrogen]
  saturated solubility in water: 1.6 ppm
